From patent publication US10953015B2, “Use of adenosine receptor signaling to regulate P-gp function” (CORNELL UNIVERSITY, priority 2016, dated 2021)

What was measured:
[1] = cited from earlier work
P-gp [2] = assay: P-gp expression in HEK293T kidney cell line (IFA MFI, western blot); type: cell-based, human; conditions: Lexiscan® 1, 0.5, 0.1 μM
Description: FIGS. 20A and 20B illustrate that Lexiscan® downregulates P-gp expression in the kidney cell line HEK293T while treatment with antagonist SCH58261 blocks Lexiscan®'s effects. […] HEK293T cells were grown to confluency on coverslips, and treated with varying concentrations of Lexiscan® (1, 0.5, and 0.1 μM) for 15 minutes. Cells were permeabilized and then stained with an antibody to P-gp (C219) and visualized under a fluorescent microscope. FIG. 20B is a graph of the MFI of P-gp in FIG. 20A. DMSO vs. Lexiscan® (“Lex”), *=P<0.05, Lexiscan® (“Lex”)+SCH58261 (“SCH”), ****P<0.0001.
HEK293T transformed kidney cells were treated with varying concentration of Lexiscan® (1, 0.5, 0.1 μM). Cells were lysed with lysis buffer ([…]), containing protease inhibitor cocktail. Samples were loaded on 7% SDS PAGE at 100V for 1 hour and transferred to nitrocellulose paper. The intensity of bands were analyzed by densitometry and plotted as a graph. Statistics: two-tailed student's t test: *=P<0.5, ****=P<0.0001.
Applicants investigated whether A2A AR agonists could modulate P-gp expression in the HEK293T human kidney cell line. HEK293T cells were grown to confluency on coverslips and treated with varying concentrations of Lexiscan, Lexiscan® plus the A2A antagonist (SCH58261), or vehicle control for 15 minutes. Cells were then permeabilized, stained with an antibody to P-gp, and visualized under a fluorescent microscope (FIG. 20A). The mean fluorescence intensity (MFI) of P-gp was quantified and graphed in FIG. 20B.
HEK293T cells were treated with various concentrations of Lexiscan, lysed, loaded onto an SDS-PAGE gel, transferred to a nitrocellulose membrane, and used for western blot analysis.

P-gp [3] = assay: P-gp expression in Caco-2 human tumor cell line (IFA MFI, western blot); type: cell-based; conditions: 1 μM for 30 minutes (IFA), 1, 0.5, 0.1 μM (western blot)
Description: FIG. 19A are fluorescence microscopy images of Caco-2 cells (originally isolated from a human primary colonic tumor) grown on coverslips and treated with Lexiscan® (1 μM) or A1193 (1 μM), or DMSO (vehicle) control for 30 minutes. Next, cells were fixed, permeabilized, and stained with an antibody to P-gp. After washing, cells were mounted with DAPI for nuclear staining. FIG. 19B is a graph of the MFI of P-gp. FIG. 19C is a graph of densitometric analysis of a western blot of Caco-2 cells treated with Lexiscan® in varying concentrations (1, 0.5, and 0.1 μM). Densitometric analysis was performed to quantify the amount of P-gp in western blot. Statistics: two tailed student's t test for FIG. 19B, *<0.5.
Applicants also evaluated whether A2A AR agonists can modulate P-gp expression in a human tumor cell line, Caco-2 cells. Briefly, Caco-2 cells (originally isolated from a human tumor) were grown on coverslips and treated with Lexiscan®, A1193, or vehicle control for 30 minutes. Cells were then fixed, permeabilized, and stained with an antibody to P-gp. After washing, cells were mounted with DAPI for nuclear staining (FIG. 19A). The mean fluorescence intensity (MFI) of P-gp was quantified and graphed in FIG. 19B.

P-gp [4] = assay: P-gp solubility and secretion in HBMVEC (RIPA lysate, CSK cytoskeletal fraction, media); type: cell-based, human
Description: FIG. 8A is a schematic diagram of the experimental procedure for analysis of Lexiscan®'s effect on P-gp solubility and excretion in primary brain endothelial cells (“HBMVEC”). FIGS. 8B-8C are western blots and graphs summarizing the experimental result of each western blot. FIGS. 8B-8C show the analysis of P-gp expression of HBMVEC upon activation with Lexiscan® at different time points after lysis with RIPA buffer (FIG. 8B) or CSK buffer to measure P-gp levels in the cytoskeletal fraction (FIG. 8C). Band intensity was normalized to GAPDH and graphed. […] Band intensity was normalized using GAPDH and plotted. FIG. 8E is a western blot of secreted P-gp in HBMVEC upon activation with Lexiscan® in absence or presence of an MMP9 inhibitor: both short and long exposures of western blot from MMP9 inhibitor-treated samples are shown. Band intensity was plotted as a graph. FIG. 8F is a western blot showing the results of an Immunoprecipitation assay of MMP9 with lysate from HBMVEC treated with vehicle (control) or 1 μM of Lexiscan® for 5 minutes. P-gp was pulled down using anti-P-gp antibody and immunoblotted with an anti-MMP9 antibody. FIG. 8G is an immunofluorescence microscopy image of MMP9 on HBMVEC treated with control (top panel) or 1 μM of Lexiscan® (middle panel) for 5 minutes. Cells were stained with P-gp (green) and MMP9 (red). Nucleus was counterstained with DAPI (blue). […] Cell-surface colocalization of P-gp and MMP9 is indicated by arrows. The scale bars indicates 25 μm (upper and middle panels); 5 μm (bottom panels). FIG. 8H is a graph summarizing the intensity of fluorescence of MMP9 from FIG. 8G. Fluorescent intensity of MMP9 was quantified and plotted as graph (n=20). **P<0.01 (2-tailed Student's t test, 1 representative result of 3 different experiments).
(§1) HCMEC-D3 and HBMVEC cells were plated in 12-well plates and were grown until they reached 100% confluency. […] The intensity of band was analyzed with densitometric analysis and plotted as a graph for analysis of time-course effect of AR signaling on P-gp expression.

MMP9 = MMP9 expression in HBMVEC (western blot, IFA); type: cell-based, human; conditions: western blot and IFA
Description: FIG. 8A is a schematic diagram of the experimental procedure for analysis of Lexiscan®'s effect on P-gp solubility and excretion in primary brain endothelial cells (“HBMVEC”). FIGS. 8B-8C are western blots and graphs summarizing the experimental result of each western blot. FIGS. 8B-8C show the analysis of P-gp expression of HBMVEC upon activation with Lexiscan® at different time points after lysis with RIPA buffer (FIG. 8B) or CSK buffer to measure P-gp levels in the cytoskeletal fraction (FIG. 8C). Band intensity was normalized to GAPDH and graphed. […] Band intensity was normalized using GAPDH and plotted. FIG. 8E is a western blot of secreted P-gp in HBMVEC upon activation with Lexiscan® in absence or presence of an MMP9 inhibitor: both short and long exposures of western blot from MMP9 inhibitor-treated samples are shown. Band intensity was plotted as a graph. […] FIG. 8H is a graph summarizing the intensity of fluorescence of MMP9 from FIG. 8G. Fluorescent intensity of MMP9 was quantified and plotted as graph (n=20). **P<0.01 (2-tailed Student's t test, 1 representative result of 3 different experiments).
as §1

Structure (SMILES) | half-life [1] | P-gp expression (western blot densitometry) (P-gp [2]) | P-gp expression (MFI) (P-gp [2]; 15 minutes) | P-gp expression (P-gp [3]) | Secreted P-gp released into the media (P-gp [4]) | P-gp level in cytoskeletal fraction (CSK buffer) (P-gp [4]; up to 60 minutes) | P-gp level in whole lysate (RIPA buffer) (P-gp [4]; up to 60 minutes) | MMP9 expression (MMP9)
CCNC(=O)[C@H]1O[C@@H](n2cnc3c(N)ncnc32)[C@H](O)[C@@H]1O [NECA, (2S,3S,4R,5R)-5-(6-aminopurin-9-yl)-N-ethyl-3,4-dihydroxyoxolane-2-carboxamide] | 5 h |  |  |  |  |  |  | 
CNC(=O)c1cnn(-c2nc(N)c3ncn([C@@H]4O[C@H](CO)[C@@H](O)[C@H]4O)c3n2)c1 [Lexiscan®, 1-[6-amino-9-[(2R,3R,4S,5R)-3,4-dihydroxy-5-(hydroxymethyl)oxolan-2-yl]purin-2-yl]-N-methylpyrazole-4-carboxamide] |  | significantly down-regulated P-gp expression in transformed HEK293T cells | down-regulates P-gp expression in HEK293T cells | down-regulates P-gp expression in Caco-2 | An increase in secreted P-gp that was released into the media | P-gp levels increased at from 5 to 15 minutes, returned to baseline by 30 minutes | P-gp levels declined compared with vehicle control beginning at 5 minutes and were maintained for up to 60 minutes | Increased expression of MMP9 was observed beginning at 5 minutes
